# Test results taken from patent US20250186403A1 (ARIZONA BOARD OF REGENTS ON BEHALF OF THE UNIVERSITY OF …, priority 2022, published 2025).
# Columns and labels:
# [1] = tested on: Cne-WT in RAW 264.7 macrophages; test: Phagocytosis assay (macrophage intracellular infection model); assay type: cell-based, Cryptococcus neoformans; conditions: for reduction of intracellular Cne in macrophages: 24 h, macrophage lysate
# Protocol: FIGS. 1B, 1C, and 1D show phagocytosis assays. RAW 264.7 cells were seeded in 24 well plates and differentiated into macrophages using PMA. Media was replaced with fresh media containing opsonized Cne-WT and incubated at 37° C. for 8 h. Cells were washed 3 times with PBS to remove non-phagocytosed fungal cells. […] Culture supernatants were diluted and plated onto SD agar plates for tittering the fungal load. The cells were washed thrice with PBS and homogenized with a small homogenizer, diluted, and plated on SD agar plates. Colonies were counted after 72 h. […] Treatment groups were compared with unpaired Student's t-test. p<0.05 is considered significant. […] Insert: enlarged view of the phagocytosed Cne cells. The cells were permeabilized with methanol and stained with Giemsa stain. CFU: […] Cne: Cryptococcus neoformans.
# Phagocytosis assay: Mouse monocyte/macrophage-like cells RAW 264.7 were seeded in the six-well plate in DMEM media with 10% FBS and incubated at 37° C. in a CO2 incubator. Once it reached 70% confluently, the cells were differentiated into macrophages by replacing the culture supernatant with fresh media containing 100 nM phorbol 12-myristate 13-acetate (PMA) and incubated at 37° C. for 48 h in a CO2 incubator. Differentiated cells in six-well plates were washed once with PBS to remove loosely bound cells. Cne-WT cells were grown overnight in the SD broth media and washed thrice in 0.1 mM PBS, opsonized with 20% human complement serum (Sigma, USA) and 20 μg glucuronoxylomannan specific antibody (clone 18B7, EMD Millipore, USA) by incubating at 37° C. for 30 min with rotating end to end. The Cne cells were washed thrice with PBS to remove unbound antibodies and serum components. The opsonized Cne cells were added to the macrophages at 1:10 ratio and incubated at 37° C. for 10 h. […] The fungal load in the media and the cells was estimated. For tittering, 100 μl of the culture supernatant was plated onto the SD-agar plates with tenfold dilutions. The cells were washed with PBS, scraped, and harvested in PBS, homogenized with a disposable homogenizer. A volume of 30 μl was mixed with 60 μl SD media and plated onto the SD agar plates. The plates were incubated at 30° C. for 72 h, and colonies were counted.
# Cne cells = test: Checkerboard assay with known antifungals; assay type: cell-based, Cryptococcus neoformans
# Protocol: After adding Cne cells, the plates were incubated for 48 h. Well contents were mixed by pipette, and absorbance was read at 630 nm. […] Based on the FIC, the combinatorial effects are decided as in Table 2.
# [2] = 7-day toxicity study in mice; assay type: in vivo, BALB/c mice; parameters: key to Movement score (first line, r17) / Movement score (second line, r19): 0 = Normal; 1 = slight incoordination/decreased righting response; 2 = tiptoe walking or altered gait involving 1 limb; 3 = staggering or paralysis or tremors of 2 or more limbs; key to Coat condition score: 0 = normal/groomed; 1 = rough; 2 = ruffled/unkempt; key to Posture score: 0 = normal; 1 = slightly hunched; 2 = moderately hunched; 3 = severally hunched; conditions: for Coat condition score / Death / Movement score (first line, r17) / Movement score (second line, r19) / Posture score / Seizure: individual mice
# Protocol: FIGS. 4A, 4B, and 4C show in vitro and in vivo toxicity. […] A549 and RAW 264.7 cells were grown in 96 well plates till 70% confluent. RAW 264.7 cells were differentiated into macrophages using PMA. […] The cell viability was estimated by Cell Counting Kit-8 (GlpBio, CA, USA), and absorbance was read at 450 nm using microplate reader Synergy H1 (BioTek). CC50 was calculated by GraphPad prism. […] Abs: absorbance. […] Bodyweight and other parameters were monitored daily (Table 3).
# The mice were observed twice daily for general health, movement, activity, and coat condition and scored. Food and water were ad libitum. On day 7, the mice were euthanized, and necropsy was done to see any changes in the organs as compared to the normal mice by visual observation.
# [3] = Cryptococcus neoformans, RAW264.7, 24 h, read-out: inhibition of released Cne
# [4] = CMN 5 mg/kg BW oral daily 7 days
# [5] = CMN 10 mg/kg BW oral daily 7 days
# [6] = CMN 20 mg/kg BW oral daily 7 days
# [7] = CMN 40 mg/kg BW oral daily 7 days
smiles,measurement,setting,value
"CNc1ccc2oc(C[C@H]3O[C@@]4(CC[C@H]3C)O[C@H]([C@H](C)C(=O)c3ccc[nH]3)[C@H](C)C[C@H]4C)nc2c1C(=O)O [CMN, calcimycin]",reduction of intracellular Cne in macrophages,[1]; 0.3 μg/ml CMN,23%
same,reduction of intracellular Cne in macrophages,[1]; 0.6 μg/ml CMN,50%
same,reduction of intracellular Cne in macrophages,[1]; CMN,72%
same,inhibition at 0.3 µg/mL,[1]; [3],41%
same,inhibition at 0.6 µg/mL,[1]; [3],59%
same,inhibition at 1.3 µg/mL,[1]; [3],69%
same,released Cne (significance),[1]; at 0.3 μg/ml,significantly reduced
same,growth of intracellular Cne in macrophages (significance),[1]; at 0.6 μg/ml,significantly reduced
same,MIC,"Cne cells; Cryptococcus neoformans, 48 h, read-out: MIC Alone",1.31 µg/mL
same,MIC Comb,"Cne cells; combination CMN + 5-Fluorocytosine, well D2",0.65 µg/mL
same,MIC Comb,"Cne cells; combination CMN + Amphotericin B, well E6",0.33 µg/mL
same,MIC Comb,"Cne cells; combination CMN + Itraconazole, well E4",0.33 µg/mL
same,MIC Comb,"Cne cells; combination CMN + Voriconazole, well D4",0.65 µg/mL
same,other morbidity,"[2]; 40 mg/ml daily oral gavage, 7 days",no other morbidity was observed
same,loss of body weight,"[2]; 40 mg/ml daily oral gavage, by day 7",8%
same,activity of mice,"[2]; 40 mg/ml, for 1-2 h post-dosing",slower
same,Coat condition score,[2]; [4],0
same,Death,[2]; [4],0
same,"Movement score (first line, r17)",[2]; [4],0
same,"Movement score (second line, r19)",[2]; [4],0
same,Posture score,[2]; [4],0
same,Seizure,[2]; [4],0
same,Coat condition score,[2]; [5],0
same,Death,[2]; [5],0
same,"Movement score (first line, r17)",[2]; [5],0
same,"Movement score (second line, r19)",[2]; [5],0
same,Posture score,[2]; [5],0
same,Seizure,[2]; [5],0
same,Coat condition score,[2]; [6],0
same,Death,[2]; [6],0
same,"Movement score (first line, r17)",[2]; [6],0
same,"Movement score (second line, r19)",[2]; [6],0
same,Posture score,[2]; [6],0
same,Seizure,[2]; [6],0
same,Coat condition score,[2]; [7],0
same,Death,[2]; [7],0
same,"Movement score (first line, r17)",[2]; [7],1
same,"Movement score (second line, r19)",[2]; [7],0
same,Posture score,[2]; [7],0
same,Seizure,[2]; [7],0
same,"change in activity, appearance of fur, weight loss","[2]; daily oral gavage at 5, 10, 20 mg/ml, 7 days",no significant change
